Test results reported in paper PMC1470342 (Environmental Health Perspectives, 1997).

Columns and labels:
[1] = target: T1, Gal4-human ER chimera (Gal4-HEGO) (Homo sapiens, UniProt P03372); test: Recombinant receptor/reporter gene assay; assay type: cell-based
T1 sequence (P03372 311-547 limits assumed): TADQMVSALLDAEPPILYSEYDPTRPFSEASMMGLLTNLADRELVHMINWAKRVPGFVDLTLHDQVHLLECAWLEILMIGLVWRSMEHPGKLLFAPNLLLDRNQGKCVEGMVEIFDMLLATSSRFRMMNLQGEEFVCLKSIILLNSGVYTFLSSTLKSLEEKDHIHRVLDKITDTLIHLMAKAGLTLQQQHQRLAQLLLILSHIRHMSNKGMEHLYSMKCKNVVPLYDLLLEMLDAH

ovariectomized CD-1 mice [2] = test: Mouse uterotrophic assay; assay type: in vivo; details: 202 mg/kg, p < 0.0002
ovariectomized CD-1 mice [3] = test: Vaginal cell cornification assay; assay type: in vivo, mouse; details: 202, 16 and 1.7 mg/kg
MCF-7 cells = test: GC-MS analysis of media from PCB 104-treated transfected MCF-7 cells; details: MCF-7 cells incubated with PCB 104 for 8, 24, 48 hr; SIM GC-MS
[4] = co-treatment 1 nM E2 plus 0.1, 1, 10 pM (printed)

Row | SMILES | effect on E2-induced luciferase activity compared to E2 alone [1, 4] | uterine wet weight versus vehicle control (ovariectomized CD-1 mice [2]) | vaginal cell cornification, dose response (ovariectomized CD-1 mice [3]) | presence of metabolite HO-PCB 104 or hydroxylated isomers in media extracts (MCF-7 cells) | estrogenic activity in reporter gene assay ([1]; alone, 24 hr) | effect on E2-induced luciferase activity compared to E2 alone ([1]; co-treatment 1 nM E2 plus 10 pM (printed; 10 microM in abstract))
1 | Clc1cc(Cl)c(-c2c(Cl)cccc2Cl)c(Cl)c1 [PCB 104, 2,4,6,2',6'-pentachlorobiphenyl] | no effect | increased uterine wet weight | induced vaginal epithelial cell cornification | failed to detect |  | 
2 | Clc1cc(Cl)c(-c2c(Cl)cc(Cl)cc2Cl)c(Cl)c1 [PCB 155, 2,4,6,2',4',6'-hexachlorobiphenyl] | significant antiestrogenic activity |  |  |  | minimal | 
3 | Oc1cc(Cl)c(-c2c(Cl)cc(Cl)cc2Cl)c(Cl)c1 [HO-PCB 104, 2,4,6,2',6'-pentachloro-4-biphenylol] |  |  |  |  |  | additivity
